From ChEMBL document CHEMBL5380808, “Design, Synthesis, and Biological Activity of Marinacarboline Analogues as STAT3 Pathway Inhibitors for Docetaxel-Resistant Triple-Negative Breast Cancer” (J Med Chem, 2023)
pIC50: −log10 of the molar value. Activity calls are given as the source filed them. The calls are words filed in the database; no cut-off is given here.

Experiments:
[1] = Cytotoxicity against human MRC5 cells assessed as reduction in cell viability incubated for 72 hrs by sulforhodamine B assay; format: toxicity, cell-based
[2] = biological target: T1, Signal transducer and activator of transcription 5A (Homo sapiens) (UniProt P42229); assay: Inhibition of STAT5 phosphorylation at Y694 residue in docetaxel-resistant human MDA-MB-231-DTR cells assessed as decrease in phosphorylated STAT5 level at 2.5 to 10 uM incubated for 24 hrs by Western blot analysis; format: cell-based; conditions: dose 2.5-10 µM
T1 sequence (whole entry): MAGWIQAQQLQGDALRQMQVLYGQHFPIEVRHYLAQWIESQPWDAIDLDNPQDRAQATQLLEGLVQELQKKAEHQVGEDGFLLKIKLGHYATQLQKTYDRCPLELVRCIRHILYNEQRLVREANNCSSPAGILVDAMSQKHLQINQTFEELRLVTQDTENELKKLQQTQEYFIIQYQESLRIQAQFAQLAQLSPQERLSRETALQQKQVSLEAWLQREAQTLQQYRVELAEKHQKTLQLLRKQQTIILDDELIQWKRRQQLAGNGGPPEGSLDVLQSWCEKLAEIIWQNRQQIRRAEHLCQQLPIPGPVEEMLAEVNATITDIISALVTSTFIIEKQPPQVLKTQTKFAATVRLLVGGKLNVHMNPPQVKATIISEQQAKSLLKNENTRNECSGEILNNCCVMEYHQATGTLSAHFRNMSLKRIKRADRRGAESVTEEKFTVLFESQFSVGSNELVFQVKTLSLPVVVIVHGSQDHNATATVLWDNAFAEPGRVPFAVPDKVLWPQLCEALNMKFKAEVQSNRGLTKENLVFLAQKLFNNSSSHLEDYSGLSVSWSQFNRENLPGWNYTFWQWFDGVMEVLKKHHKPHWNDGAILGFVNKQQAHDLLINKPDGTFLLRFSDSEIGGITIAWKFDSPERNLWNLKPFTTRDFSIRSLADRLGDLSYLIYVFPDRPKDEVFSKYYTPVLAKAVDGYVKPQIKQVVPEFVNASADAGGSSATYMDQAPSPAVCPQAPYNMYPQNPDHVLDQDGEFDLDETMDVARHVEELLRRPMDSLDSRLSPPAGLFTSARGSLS

[3] = Synergistic antiproliferative activity against docetaxel-resistant human MDA-MB-231-DTR cells assessed as combination index at 2 uM incubated for 72 hrs in presence of 4 uM of docetaxel by Chou-Talalay method; format: functional
[4] = Synergistic antiproliferative activity against docetaxel-resistant human MDA-MB-231-DTR cells assessed as combination index at 4 uM incubated for 72 hrs in presence of 2 uM of docetaxel by Chou-Talalay method; format: functional
[5] = Synergistic antiproliferative activity against docetaxel-resistant human MDA-MB-231-DTR cells assessed as combination index at 4 uM incubated for 72 hrs in presence of 4 uM of docetaxel by Chou-Talalay method; format: functional
[6] = Synergistic antiproliferative activity against docetaxel-resistant human MDA-MB-231-DTR cells assessed as combination index at 8 uM incubated for 72 hrs in presence of 1 uM of docetaxel by Chou-Talalay method; format: functional
[7] = Induction of cell cycle arrest in docetaxel-resistant human MDA-MB-231-DTR cells assessed as accumulation at G2/M phase at 5 uM incubated for 24 hrs by PI staining based flow cytometry analysis (reference value: 13.54%); format: functional
[8] = Induction of cell cycle arrest in docetaxel-resistant human MDA-MB-231-DTR cells assessed as accumulation at subG1 phase at 5 uM incubated for 36 hrs by PI staining based flow cytometry analysis (reference value: 0.52%); format: functional
[9] = Induction of cell cycle arrest in docetaxel-resistant human MDA-MB-231-DTR cells assessed as accumulation at S phase at 2.5 uM incubated for 36 hrs by PI staining based flow cytometry analysis (reference value: 11.57%); format: functional
[10] = Induction of cell cycle arrest in docetaxel-resistant human MDA-MB-231-DTR cells assessed as accumulation at subG1 phase at 5 uM incubated for 24 hrs by PI staining based flow cytometry analysis (reference value: 0.41%); format: functional
[11] = Induction of cell cycle arrest in docetaxel-resistant human MDA-MB-231-DTR cells assessed as accumulation at subG1 phase at 5 uM incubated for 36 hrs by PI staining based flow cytometry analysis (reference value: 0.41%); format: functional
[12] = Induction of cell cycle arrest in docetaxel-resistant human MDA-MB-231-DTR cells assessed as accumulation at subG1 phase at 5 uM incubated for 48 hrs by PI staining based flow cytometry analysis (reference value: 0.41%); format: functional
[13] = Induction of cell cycle arrest in docetaxel-resistant human MDA-MB-231-DTR cells assessed as accumulation at G0/G1 phase at 5 uM incubated for 12 hrs by PI staining based flow cytometry analysis (reference value: 75.49%); format: functional
[14] = Induction of cell cycle arrest in docetaxel-resistant human MDA-MB-231-DTR cells assessed as accumulation at G0/G1 phase at 5 uM incubated for 36 hrs by PI staining based flow cytometry analysis (reference value: 75.49%); format: functional
[15] = Induction of cell cycle arrest in docetaxel-resistant human MDA-MB-231-DTR cells assessed as accumulation at G2/M phase at 5 uM incubated for 48 hrs by PI staining based flow cytometry analysis (reference value: 13.54%); format: functional
MDA-MB-231 [16] = assay: Induction of apoptosis in docetaxel-resistant human MDA-MB-231-DTR cells assessed as upregulation of cleaved-PARP expression level at 2.5 to 10 uM incubated for 48 hrs by Western blot analysis; format: functional, cell-based; conditions: dose 2.5-10 µM
MDA-MB-231 [17] = assay: Induction of apoptosis in docetaxel-resistant human MDA-MB-231-DTR cells assessed as upregulation of cleaved-caspase-9 expression level at 2.5 to 10 uM incubated for 48 hrs by Western blot analysis; format: functional, cell-based; conditions: dose 2.5-10 µM
MDA-MB-231 [18] = assay: Inhibition of cell migration in docetaxel-resistant human MDA-MB-231-DTR cells at 3 to 6 uM incubated for 24 hrs by microscopy based wound healing assay; format: functional; conditions: dose 3-6 µM
MDA-MB-231 [19] = assay: Inhibition of cell migration in docetaxel-resistant human MDA-MB-231-DTR cells assessed as downregulation of Snail expression level at 3 to 6 uM incubated for 24 hrs by Western blot analysis; format: functional, cell-based; conditions: dose 3-6 µM
MDA-MB-231 [20] = assay: Antitumor activity against docetaxel-resistant human MDA-MB-231-DTR cells xenografted in BALB/c mouse assessed as reduction in tumor volume at 10 mg/kg, ip daily for 12 days in presence of docetaxel; format: functional, organism-based; conditions: time 12.0 day
MDA-MB-231 [21] = assay: Antitumor activity against docetaxel-resistant human MDA-MB-231-DTR cells xenografted in BALB/c mouse assessed as reduction in tumor weight at 10 mg/kg, ip daily for 12 days in presence of docetaxel; format: functional, organism-based; conditions: time 12.0 day
MDA-MB-231 [22] = assay: Antiproliferative activity against human MDA-MB-231 cells assessed as reduction in cell viability incubated for 72 hrs by MTT assay; format: functional, cell-based; conditions: MDA-MB-231, 72 h
[23] = Antiproliferative activity against docetaxel-resistant human MDA-MB-231-DTR cells assessed as reduction in cell viability incubated for 72 hrs by MTT assay; format: functional, cell-based; conditions: MDA-MB-231, 72 h

## O=C(NCCc1c[nH]c2ccccc12)c1cc2c([nH]c3ccccc32)c(C(=O)c2ccc(Br)cc2)n1
[1]
  IC50 at 72 h: 33.2 µM
[2]
  inhibition: inactive
[3]
  CI: 0.32
[4]
  CI: 0.53
[5]
  CI: 0.37
[6]
  CI: 0.66
[7]
  Activity: 21.18%
[8]
  Activity: 1.81%
[9]
  Activity: 12.13%
[10]
  Activity: 1.75%
[11]
  Activity: 4.35%
[12]
  Activity: 19.53%
[13]
  Activity: 88.84%
[14]
  Activity: 55.56%
[15]
  Activity: 12.87%
MDA-MB-231 [16]
  Activity: Active
MDA-MB-231 [17]
  Activity: Active
MDA-MB-231 [18]
  inhibition: Dose-Dependent Effect
MDA-MB-231 [19]
  inhibition: Active
MDA-MB-231 [20]
  Activity: Active
MDA-MB-231 [21]
  Activity: Active
MDA-MB-231 [22]
  pIC50: 5.53
[23]
  pIC50: 5.49
